The text below walks through data of US11052092B2, “N-{[2-(piperidin-1-yl)phenyl](phenyl)methyl}-2-(3-oxo-3,4-dihydro-2H-1,4-benzoxazin-7-yl)acetamide derivatives and related compounds as ROR-gamma modulators for treating autoimmune diseases” (Genfit, priority 2017, dated 2021).

Counter-ions that a name gives are not always drawn.

For orientation: melting point means the temperature, or range, at which the solid turns liquid. In turn, `Cc1ccc(C(NC(=O)Cc2ccc3c(c2)CC(=O)N3)c2ccc(Cl)o2)c(N2CCCCC2)c1` (stereo not shown) (as salt: HCl) [Cpd. 83, N-[(5-chlorofuran-2-yl)[4-methyl-2-(piperidin-1-yl)phenyl]methyl]-2-(2-oxo-2,3-dihydro-1H-indol-5-yl)acetamide] registered a melting point of 105 °C.

For the molecule `Cc1ccc(C(NC(=O)C2(c3ccc4c(c3)CC(=O)N4)CC2)c2ccc(Cl)o2)c(C)c1` (stereo not shown) (as salt: HCl) [Cpd. 86, N-[(5-chlorofuran-2-yl)(2,4-dimethylphenyl)methyl]-1-(2-oxo-2,3-dihydro-1H-indol-5-yl)cyclopropane-1-carboxamide], the melting point is 78 °C.

Molecule `Cc1ccc(C(NC(=O)C2(c3ccc4c(c3)CS(=O)(=O)N4)CC2)c2ccc(Cl)o2)c(C)c1` (stereo not shown) (as salt: HCl) [Cpd. 87, N-[(5-chlorofuran-2-yl)(2,4-dimethylphenyl)methyl]-1-(2,2-dioxo-1,3-dihydro-2,1-benzothiazol-5-yl)cyclopropane-1-carboxamide] returned a melting point of 86 °C.

In turn, `CCOc1nc2cc(CC(=O)NC(c3ccccc3)c3ccc(C)cc3Br)ccc2[nH]1` (stereo not shown) (as salt: HCl) [Cpd. 90, N-[(2-bromo-4-methylphenyl)(phenyl)methyl]-2-(2-ethoxy-1H-1,3-benzodiazol-5-yl)acetamide] gave a melting point of 189 °C.

As to `CSc1ccc2cc(CC(=O)NC(c3ccc(C)o3)c3ccc(C)cc3N3CCCCC3)ccc2c1` (stereo not shown) (as salt: HCl) [Cpd. 91, N-{[4-methyl-2-(piperidin-1-yl)phenyl](5-methylfuran-2-yl)methyl}-2-[6-(methylsulfanyl)naphthalen-2-yl]acetamide], the melting point is 134 °C.

Take `Cc1ccc(C(NC(=O)Cc2ccc3[nH]c(N4CCOCC4)nc3c2)c2ccc(C)o2)c(N2CCCCC2)c1` (stereo not shown) (as salt: HCl) [Cpd. 93, N-{[4-methyl-2-(piperidin-1-yl)phenyl](5-methylfuran-2-yl)methyl}-2-[2-(morpholin-4-yl)-1H-1,3-benzodiazol-5-yl]acetamide]: the melting point is 125 °C.

On to `Cc1ccc(C(NC(=O)C2(c3ccc4c(c3)CCN4C(=O)C3CC3)CC2)c2ccc(C)o2)c(C)c1` (stereo not shown) (as salt: HCl) [Cpd. 95, 1-(1-cyclopropanecarbonyl-2,3-dihydro-1H-indol-5-yl)-N-[(2,4-dimethylphenyl)(5-methylfuran-2-yl)methyl]cyclopropane-1-carboxamide], for which the melting point amounted to 70 °C.

`Cc1ccc(C(NC(=O)Cc2ccc3c(ccn3CCC(=O)OC(C)(C)C)c2)c2ccc(C)o2)c(N2CCCCC2)c1` (stereo not shown) (as salt: HCl) [Cpd. 96, tert-butyl 3-{5-[({[4-methyl-2-(piperidin-1-yl)phenyl](5-methylfuran-2-yl)methyl}carbamoyl)methyl]-1H-indol-1-yl}propanoate] showed a melting point of 50 °C.

`Cc1ccc(C(NC(=O)Cc2ccc3[nH]cc(CCS(C)(=O)=O)c3c2)c2ccc(C)o2)c(N2CCCCC2)c1` (stereo not shown) (as salt: HCl) [Cpd. 98, 2-[3-(2-methanesulfonylethyl)-1H-indol-5-yl]-N-{[4-methyl-2-(piperidin-1-yl)phenyl](5-methylfuran-2-yl)methyl}acetamide]: the melting point amounted to 107 °C.

`Cc1ccc(C(NC(=O)Cc2ccc3c(ccn3CCC(=O)OC(C)(C)C)c2)c2ccc(C)o2)c(C)c1` (stereo not shown) (as salt: HCl) [Cpd. 99, tert-butyl 3-[5-({[(2,4-dimethylphenyl)(5-methylfuran-2-yl)methyl]carbamoyl}methyl)-1H-indol-1-yl]propanoate] gave a melting point of 39 °C.

In turn, `Cc1ccc(C(NC(=O)Cc2ccc3c(ccn3CCC(=O)OC(C)(C)C)c2)c2ccc(C)o2)c(Br)c1` (stereo not shown) (as salt: HCl) [Cpd. 100, tert-butyl 3-[5-({[(2-bromo-4-methylphenyl)(5-methylfuran-2-yl)methyl]carbamoyl}methyl)-1H-indol-1-yl]propanoate] yielded a melting point of 149 °C.

For the molecule `Cc1ccc(C(NC(=O)Cc2ccc3[nH]cc(C(=O)CS(C)(=O)=O)c3c2)c2ccc(C)o2)c(N2CCCCC2)c1` (stereo not shown) (as salt: HCl) [Cpd. 103, 2-[3-(2-methanesulfonylacetyl)-1H-indol-5-yl]-N-{[4-methyl-2-(piperidin-1-yl)phenyl](5-methylfuran-2-yl)methyl}acetamide], the melting point was 139 °C.

Regarding `Cc1ccc(C(NC(=O)Cc2ccc3[nH]cc(C(=O)CS(C)(=O)=O)c3c2)c2ccc(C)o2)c(Br)c1` (stereo not shown) (as salt: HCl) [Cpd. 104, N-[(2-bromo-4-methylphenyl)(5-methylfuran-2-yl)methyl]-2-[3-(2-methanesulfonylacetyl)-1H-indol-5-yl]acetamide], the melting point turned out to be 206 °C.

On to `Cc1ccc(C(NC(=O)Cc2ccc3[nH]cc(C(=O)CS(C)(=O)=O)c3c2)c2ccc(C)o2)c(C)c1` (stereo not shown) (as salt: HCl) [Cpd. 107, N-[(2,4-dimethylphenyl)(5-methylfuran-2-yl)methyl]-2-[3-(2-methanesulfonylacetyl)-1H-indol-5-yl]acetamide], for which the melting point is 213 °C.

Molecule `Cc1ccc(C(NC(=O)C2(c3ccc4[nH]ccc4c3)CC2)c2ccc(C)o2)c(C)c1` (stereo not shown) (as salt: HCl) [Cpd. 108, N-[(2,4-dimethylphenyl)(5-methylfuran-2-yl)methyl]-1-(1H-indol-5-yl)cyclopropane-1-carboxamide] had a melting point of 62 °C.

In turn, `COc1ccc(C(NC(=O)Cc2ccc3c(ccn3CCC(=O)OC(C)(C)C)c2)c2ccc(C)o2)c(N2CCCCCC2)c1` (stereo not shown) (as salt: HCl) [Cpd. 110, tert-butyl 3-{5-[({[2-(azepan-1-yl)-4-methoxyphenyl](5-methylfuran-2-yl)methyl}carbamoyl)methyl]-1H-indol-1-yl}propanoate] came in with a melting point of 57 °C.

Turning to `Cc1ccc(C(NC(=O)Cc2ccc3ccn(C(=O)N4CCOCC4)c3c2)c2ccc(C)o2)c(N2CCCCC2)c1` (stereo not shown) (as salt: HCl) [Cpd. 114, N-{[4-methyl-2-(piperidin-1-yl)phenyl](5-methylfuran-2-yl)methyl}-2-[1-(morpholine-4-carbonyl)-1H-indol-6-yl]acetamide], the melting point turned out to be 85 °C.

On to `CNS(=O)(=O)c1c[nH]c2ccc(CC(=O)NC(c3ccc(C)o3)c3ccc(C)cc3N3CCCCC3)cc12` (stereo not shown) (as salt: HCl) [Cpd. 115, N-{[4-methyl-2-(piperidin-1-yl)phenyl](5-methylfuran-2-yl)methyl}-2-[3-(methylsulfamoyl)-1H-indol-5-yl]acetamide], for which the melting point turned out to be 119 °C.

Regarding `Cc1ccc(C(NC(=O)Cc2ccc3[nH]cc(C(=O)N4CCOCC4)c3c2)c2ccc(C)o2)c(N2CCCCC2)c1` (stereo not shown) (as salt: HCl) [Cpd. 120, N-{[4-methyl-2-(piperidin-1-yl)phenyl](5-methylfuran-2-yl)methyl}-2-[3-(morpholine-4-carbonyl)-1H-indol-5-yl]acetamide], the melting point is 124 °C.

Molecule `COCC(=O)N1Cc2ccc(C3(C(=O)NC(c4ccc(C)o4)c4ccc(C)cc4C)CC3)cc2C1` (stereo not shown) (as salt: HCl) [Cpd. 122, N-[(2,4-dimethylphenyl)(5-methylfuran-2-yl)methyl]-1-[2-(2-methoxyacetyl)-2,3-dihydro-1H-isoindol-5-yl]cyclopropane-1-carboxamide] returned a melting point of 55 °C.

Take `Cc1ccc(C(NC(=O)Cc2ccc3c(c2)CCN3C(=O)C2CC2)c2ccc(C)o2)c(N2CCCCC2)c1` (stereo not shown) (as salt: HCl) [Cpd. 123, 2-(1-cyclopropanecarbonyl-2,3-dihydro-1H-indol-5-yl)-N-{[4-methyl-2-(piperidin-1-yl)phenyl](5-methylfuran-2-yl)methyl}acetamide]: the melting point amounted to 94 °C.

`Cc1ccc(C(NC(=O)C2(c3ccc4c(c3)OCS(=O)(=O)N4)CC2)c2ccc(C)o2)c(C)c1` (stereo not shown) (as salt: HCl) [Cpd. 124, N-[(2,4-dimethylphenyl)(5-methylfuran-2-yl)methyl]-1-(2,2-dioxo-1,3-dihydro-4,2,1-benzoxathiazin-6-yl)cyclopropane-1-carboxamide] had a melting point of 96 °C.

`Cc1ccc(C(NC(=O)C2(c3ccc4c(c3)C(=O)C(=O)N4)CC2)c2ccc(C)o2)c(C)c1` (stereo not shown) (as salt: HCl) [Cpd. 125, N-[(2,4-dimethylphenyl)(5-methylfuran-2-yl)methyl]-1-(2,3-dioxo-2,3-dihydro-1H-indol-5-yl)cyclopropane-1-carboxamide] had a melting point of 192 °C.

For the molecule `CC(=O)N1CCc2cc(C3(C(=O)NC(c4ccc(C)o4)c4ccc(C)cc4C)CC3)ccc21` (stereo not shown) (as salt: HCl) [Cpd. 126, 1-(1-acetyl-2,3-dihydro-1H-indol-5-yl)-N-[(2,4-dimethylphenyl)(5-methylfuran-2-yl)methyl]cyclopropane-1-carboxamide], the melting point came to 75 °C.

For `CC(=O)N1Cc2ccc(C3(C(=O)NC(c4ccc(C)o4)c4ccc(C)cc4C)CC3)cc2C1` (stereo not shown) (as salt: HCl) [Cpd. 127, 1-(2-acetyl-2,3-dihydro-1H-isoindol-5-yl)-N-[(2,4-dimethylphenyl)(5-methylfuran-2-yl)methyl]cyclopropane-1-carboxamide], the melting point came out at 72 °C.

`Cc1ccc(C(NC(=O)C2(c3ccc4c(c3)CC(=O)N4C)CC2)c2ccc(C)o2)c(C)c1` (stereo not shown) (as salt: HCl) [Cpd. 130, N-[(2,4-dimethylphenyl)(5-methylfuran-2-yl)methyl]-1-(1-methyl-2-oxo-2,3-dihydro-1H-indol-5-yl)cyclopropane-1-carboxamide]: the melting point is 72 °C.

With `CCN1c2ccc(C3(C(=O)NC(c4ccc(C)o4)c4ccc(C)cc4C)CC3)cc2CS1(=O)=O` (stereo not shown) (as salt: HCl) [Cpd. 132, N-[(2,4-dimethylphenyl)(5-methylfuran-2-yl)methyl]-1-(1-ethyl-2,2-dioxo-1,3-dihydro-2,1-benzothiazol-5-yl)cyclopropane-1-carboxamide], the melting point amounted to 68 °C.

For the molecule `Cc1ccc(C(NC(=O)C2(c3ccc4c(c3)CS(=O)(=O)N4C)CC2)c2ccc(C)o2)c(N(C)C)c1` (stereo not shown) (as salt: HCl) [Cpd. 133, N-{[2-(dimethylamino)-4-methylphenyl](5-methylfuran-2-yl)methyl}-1-(1-methyl-2,2-dioxo-1,3-dihydro-2,1-benzothiazol-5-yl)cyclopropane-1-carboxamide], the melting point was found to be 73 °C.
